One data set has as its system HIV-2. Description: Anti-HIV-2 activity in MT-4 cells (MTT method). Format: cell-based. On the procedure:
(§1) The evaluation of the antiviral activity of the compounds against HIV in MT-4 cells was performed using the MTT assay as described below. Stock solutions (10 × final concentration) of test compounds were added in 25 μL volumes to two series of triplicate wells to allow simultaneous evaluation of their effects on mock- and HIV-infected cells at the beginning of each experiment. Serial 5-fold dilutions of test compounds were made directly in flat-bottomed 96-well microtiter trays using a Biomek 3000 robot (Beckman Instruments, Fullerton, CA). Untreated HIV- and mock-infected cell samples were included as controls. HIV stock ([…]) at 100–300 CCID50 (50% cell culture infectious doses) or culture medium was added to either the infected or mock-infected wells of the microtiter tray. Mock-infected cells were used to evaluate the effects of the test compound on uninfected cells to assess the test compounds’ cytotoxicity. Exponentially growing MT-4 cells were centrifuged for 5 min at 220 g, and the supernatant was discarded. The MT-4 cells were resuspended at 6 × 10^5 cells/mL, and 50 μL volumes were transferred to the microtiter tray wells. Five days after infection, the viability of mock- and HIV-infected cells was examined spectrophotometrically using the MTT assay. The MTT assay is based on the reduction of yellow-colored 3-(4,5-dimethylthiazol-2-yl)-2,5-diphenyltetrazolium bromide (MTT) (Acros Organics) by mitochondrial dehydrogenase activity in metabolically active cells to a blue-purple formazan that can be measured spectrophotometrically. The absorbances were read in an eight-channel computer-controlled photometer (Infinite M1000, Tecan) at two wavelengths (540 and 690 nm). All data were calculated using the median absorbance value of three wells.
In general terms: Tetrazolium assays rely on reduction of a dye to a coloured formazan, in cell work by metabolically active cells.

For another data set, the system named is MT-4 cells. Description: in vitro. The protocol:
as §1

For a further data set, the system named is HIV-1. Description: Anti-HIV-1 activity in MT-4 cells (MTT method). Format: cell-based. As to conditions: for EC50: MT-4 cells, 50% protection against HIV-induced cytopathicity, MTT method; for anti-HIV activity: R2 1-methylnaphthalene replaced by 2-methylnaphthalene, HIV-1/HIV-2, MT-4 cells. The protocol:
as §1

The nature of data set [1]: Cytotoxicity in mock-infected MT-4 cells (MTT method). As to conditions: human, mock-infected (uninfected) MT-4 cells, CC50, uninfected MT-4 cells, viability reduced by 50%, MTT method. On the procedure: as §1
Where [2] appears, read: Human immunodeficiency virus 2, MT4, 50% protection against HIV-induced cytopathicity.
Where [3] appears, read: Human immunodeficiency virus 1, MT4.
The mark [4] stands for this setting: 50% protection against HIV-induced cytopathicity.

For orientation: EC50 means the concentration that produces a half-maximal response. Low values mean an effect from little substance, high ones a need for much substance. By CC50 is commonly meant the concentration that lowers cell viability or growth by half.

With `COc1ccc(N(C)C(=O)[C@H](Cc2cc(F)cc(F)c2)NC(=O)CN(Cc2ccc(C#N)cc2)C(=O)Cc2ccc3ccccc3c2)cc1` [I-13, (S)-2-(2-(N-(4-cyanobenzyl)-2-(naphthalen-2-yl)acetamido)acetamido)-3-(3,5-difluorophenyl)-N-(4-methoxyphenyl)-N-methylpropanamide], the EC50 was 161 ± 26 µM in the data set with HIV-2 (setting [2]) and over 189 µM in the data set on HIV-1 (setting [3]). In the data set on MT-4 cells (human, 5 days), this compound returned a CC50 of over 189 µM. The anti-HIV activity result with HIV-1 is “lost”.

For the compound `COc1ccc(N(C)C(=O)[C@H](Cc2cc(F)cc(F)c2)NC(=O)CN(Cc2ccc(F)cc2)C(=O)Cc2cccc3ccccc23)cc1` [I-8, (S)-3-(3,5-difluorophenyl)-2-(2-(N-(4-fluorobenzyl)-2-(naphthalen-1-yl)acetamido)acetamido)-N-(4-methoxyphenyl)-N-methylpropanamide], the EC50 is 5.87 ± 1.79 µM in the data set on HIV-2 (setting [2]) and over 191 µM with HIV-1 (setting [3]). Moreover, in the data set with MT-4 cells (human, 5 days), the CC50 is over 191 µM.

With `COc1ccc(N(C)C(=O)[C@H](Cc2cc(F)cc(F)c2)NC(=O)CN(C(=O)Cc2ccc(B3OC(C)(C)C(C)(C)O3)cc2)C2CC2)cc1` [I-18, (S)-2-(2-(N-cyclopropyl-2-(4-(4,4,5,5-tetramethyl-1,3,2-dioxaborolan-2-yl)phenyl)acetamido)acetamido)-3-(3,5-difluorophenyl)-N-(4-methoxyphenyl)-N-methylpropanamide], the EC50 with HIV-2 (setting [2]) amounted to 9.71 ± 0.8 µM; in the data set on HIV-1 (setting [3]), 5.18 ± 1.11 µM. The same compound gave a CC50 in the data set on MT-4 cells (human, 5 days) of 89 ± 17.1 µM.

Turning to `COc1ccc(N(C)C(=O)[C@H](Cc2cc(F)cc(F)c2)NC(=O)CN(Cc2ccc(C#N)cc2)C(=O)Cc2ccc(B3OC(C)(C)C(C)(C)O3)cc2)cc1` [I-17, (S)-2-(2-(N-(4-cyanobenzyl)-2-(4-(4,4,5,5-tetramethyl-1,3,2-dioxaborolan-2-yl)phenyl)acetamido)acetamido)-3-(3,5-difluorophenyl)-N-(4-methoxyphenyl)-N-methylpropanamide], the EC50 with HIV-2 (setting [2]) is 16.2 ± 4.59 µM; in the data set with HIV-1 (setting [3]), 17.7 ± 4.6 µM. The compound also had a CC50 with MT-4 cells (human, 5 days) of 52.4 ± 14.2 µM.

Take `COc1ccc(N(C)C(=O)[C@H](Cc2cc(F)cc(F)c2)NC(=O)CN(Cc2ccc(F)cc2)C(=O)Cc2c(C)[nH]c3ccccc23)cc1` [I-7, (S)-3-(3,5-difluorophenyl)-2-(2-(N-(4-fluorobenzyl)-2-(2-methyl-1H-indol-3-yl)acetamido)acetamido)-N-(4-methoxyphenyl)-N-methylpropanamide]: the figures for the EC50 with HIV-2 (setting [2]) and in the data set on HIV-1 (setting [3]) were over 22.6 µM and 2.79 ± 0.19 µM, respectively. The compound further displayed a CC50 in the data set with MT-4 cells (human, 5 days) of 22.6 ± 0.96 µM.

Consider `COc1ccc(N(C)C(=O)[C@H](Cc2cc(F)cc(F)c2)NC(=O)CN(Cc2ccc(F)cc2)C(=O)Cc2c[nH]c3ccc(Br)cc23)cc1` [I-9, (S)-2-(2-(2-(5-bromo-1H-indol-3-yl)-N-(4-fluorobenzyl)acetamido)acetamido)-3-(3,5-difluorophenyl)-N-(4-methoxyphenyl)-N-methylpropanamide], for which the EC50 in the data set on HIV-2 (setting [2]) was over 17.8 µM; with HIV-1 (setting [3]) it was 2.93 ± 0.32 µM. In the data set on MT-4 cells (human, 5 days), this compound came in with a CC50 of 17.8 ± 1.04 µM.

In the case of `COc1ccc(N(C)C(=O)[C@H](Cc2cc(F)cc(F)c2)NC(=O)CN(Cc2ccc(C#N)cc2)C(=O)Cc2cccc3ccccc23)cc1` [I-14, (S)-2-(2-(N-(4-cyanobenzyl)-2-(naphthalen-1-yl)acetamido)acetamido)-3-(3,5-difluorophenyl)-N-(4-methoxyphenyl)-N-methylpropanamide], the EC50 in the data set with HIV-2 (setting [2]) is 2.3 ± 0.11 µM; in the data set with HIV-1 (setting [3]), over 189 µM. The same compound displayed a CC50 in the data set on MT-4 cells (human, 5 days) of over 189 µM.

Take “(S)-2-(2-(N-(4-cyanobenzyl)-2-(5-fluoro-2-methyl-1H-indol-3-yl)acetamido)acetamido)-3-(3,5-difluorophenyl)-N-(4-methoxyphenyl)-N-methylpropanamide [I-15]”: the EC50 came to 5.81 ± 1.11 µM with HIV-2 (setting [4]) and 17.2 ± 9.98 µM in the data set on HIV-1. The CC50 in the data set with MT-4 cells came out at 148 ± 16.6 µM.

Turning to `COc1ccc(N(C)C(=O)[C@H](Cc2cc(F)cc(F)c2)NC(=O)CN(Cc2ccccc2)C(=O)Cc2c(C)[nH]c3ccccc23)cc1` [I-21, (S)-2-(2-(N-benzyl-2-(2-methyl-1H-indol-3-yl)acetamido)acetamido)-3-(3,5-difluorophenyl)-N-(4-methoxyphenyl)-N-methylpropanamide], the EC50 came out at 6.52 ± 0.6 µM with HIV-2 (setting [2]) and 2.77 ± 0.77 µM in the data set with HIV-1 (setting [3]). In the data set with MT-4 cells (human, 5 days), this compound showed a CC50 of 28.6 ± 0.86 µM.

As for `COc1ccc(N(C)C(=O)[C@H](Cc2cc(F)cc(F)c2)NC(=O)CN(Cc2ccc(F)cc2)C(=O)Cc2ccc(B(O)O)cc2)cc1` [I-23, (S)-(4-(2-((2-((3-(3,5-difluorophenyl)-1-((4-methoxyphenyl)(methyl)amino)-1-oxopropan-2-yl)amino)-2-oxoethyl)(4-fluorobenzyl)amino)-2-oxoethyl)phenyl) boronic acid], the EC50 turned out to be 6.8 ± 0.36 µM in the data set on HIV-2 (setting [2]) and 4.33 ± 1.32 µM in the data set on HIV-1 (setting [3]). The compound further returned a CC50 in the data set with MT-4 cells (human, 5 days) of 18.9 ± 3.59 µM.

As for `COc1ccc(N(C)C(=O)[C@H](Cc2cc(F)cc(F)c2)NC(=O)CN(Cc2ccc(F)cc2)C(=O)Cc2ccc3ccccc3c2)cc1` [I-6, (S)-3-(3,5-difluorophenyl)-2-(2-(N-(4-fluorobenzyl)-2-(naphthalen-2-yl)acetamido)acetamido)-N-(4-methoxyphenyl)-N-methylpropanamide], the EC50 with HIV-2 (setting [2]) and in the data set with HIV-1 (setting [3]) was over 160 µM each time. The CC50 with MT-4 cells (human, 5 days) was over 160 µM. The anti-HIV activity result with HIV-1 is “lost”.

Regarding `COc1ccc(N(C)C(=O)[C@H](Cc2cc(F)cc(F)c2)NC(=O)CN(CC2CCCCC2)C(=O)Cn2nc(C(F)(F)F)cc2C)cc1` [I-20, (S)-2-(2-(N-(cyclohexylmethyl)-2-(5-methyl-3-(trifluoromethyl)-1H-pyrazol-1-yl)acetamido)acetamido)-3-(3,5-difluorophenyl)-N-(4-methoxyphenyl)-N-methylpropanamide], the EC50 with HIV-2 (setting [2]) was found to be 24.9 ± 12 µM; in the data set on HIV-1 (setting [3]), 30.3 ± 3.24 µM. In addition, the midpoint of cytotoxicity in the data set with MT-4 cells (human, 5 days), the CC50, lay at 45.7 ± 5.36 µM.

On to `Cc1ccnc2c1NC(=O)c1cccnc1N2C1CC1` [NVP, nevirapine, reference compound], for which the EC50 in the data set on HIV-2 (setting [2]) is over 15 µM. Further, the CC50 in the data set with MT-4 cells (uninfected MT-4 cells, viability reduced by 50%, MTT method) is over 15 µM. This compound also yielded a CC50 at 5 days in data set [1] of over 15.2 µM.

Take “(S)-2-(2-(2-(5-bromo-2-methyl-1H-indol-3-yl)-N-(4-cyanobenzyl)acetamido)acetamido)-3-(3,5-difluorophenyl)-N-(4-methoxyphenyl)-N-methylpropanamide [I-16]”: the values for the EC50 with HIV-2 (setting [4]) and in the data set with HIV-1 were 15.7 ± 13.3 µM and 5.61 ± 1.18 µM, respectively. The midpoint of cytotoxicity in the data set on MT-4 cells, the CC50, lay at 87.6 ± 62.2 µM.

With `COc1ccc(N(C)C(=O)[C@H](Cc2cc(F)cc(F)c2)NC(=O)CN(Cc2ccccc2)C(=O)Cc2ccc3ccccc3c2)cc1` [I-22, (S)-2-(2-(N-benzyl-2-(naphthalen-2-yl)acetamido)acetamido)-3-(3,5-difluorophenyl)-N-(4-methoxyphenyl)-N-methylpropanamide], the EC50 is over 18.9 µM in the data set on HIV-2 (setting [2]) and over 176 µM with HIV-1 (setting [3]). This compound displayed a CC50 in the data set with MT-4 cells (human, 5 days) of 176 ± 7.35 µM.

As for `COc1ccc(N(C)C(=O)[C@H](Cc2cc(F)cc(F)c2)NC(=O)CN(Cc2ccc(F)cc2)C(=O)Cc2ccc(B3OC(C)(C)C(C)(C)O3)cc2)cc1` [I-12, (S)-3-(3,5-difluorophenyl)-2-(2-(N-(4-fluorobenzyl)-2-(4-(4,4,5,5-tetramethyl-1,3,2-dioxaborolan-2-yl)phenyl)acetamido)acetamido)-N-(4-methoxyphenyl)-N-methylpropanamide], the EC50 in the data set with HIV-2 (setting [2]) was 13.2 ± 2.6 µM; in the data set on HIV-1 (setting [3]), 11.7 ± 2.07 µM. In the data set on MT-4 cells (human, 5 days), this compound yielded a CC50 of 65.4 ± 16.8 µM.

With `COc1ccc(N(C)C(=O)[C@H](Cc2cc(F)cc(F)c2)NC(=O)CN(CC2CCCCC2)C(=O)Cc2c[nH]c3ccc(Br)cc23)cc1` [I-10, (S)-2-(2-(2-(5-bromo-1H-indol-3-yl)-N-(cyclohexylmethyl)acetamido)acetamido)-3-(3,5-difluorophenyl)-N-(4-methoxyphenyl)-N-methylpropanamide], the EC50 in the data set on HIV-2 (setting [2]) and with HIV-1 (setting [3]) was over 17.6 µM throughout. For the same compound, in the data set with MT-4 cells (human, 5 days), the CC50 was found to be 17.6 ± 2.41 µM.
